Assay results from EP4741374A1, “TREPROSTINIL DERIVATIVE, AND PREPARATION METHOD THEREFOR AND USE THEREOF” (CF PharmTech HongKong Limited, priority 2023, dated 2025).
Entries after “also recorded” stand apart in the source; their conditions may differ. Like-named read-outs stand apart in the source and are kept apart here.

How the values were obtained:
[1] = tested on: porcine esterase; experiment: Hydrolysis conversion rate of compounds into TRE mediated by porcine esterase; settings: experiment (c); 0.2 mg/mL, 20 U porcine esterase, 38°C; 5 minutes to 2 hours
Experimental: This experiment was designed to evaluate the conversion rates of various compounds with different ester side chain structures into the TRE under the action of esterase.
The carbon number of the ester side chain of each compound was 10, wherein the alkyl side chains of R-05, R-06 and R-08 contained 1~3 oxygen atoms respectively. Each compound was dissolved in 20 mL of ethanol to prepare a 1 mg/ml test compound solution for later use. Then, 1 mL of the test compound solution was transferred into 4 mL of PBS aqueous solution to obtain 0.2 mg/mL test compound reaction solution. The reaction solution was added with 20 U (80 µL) of porcine esterase, shaken evenly and then incubated at 38°C. After a period of reaction, samples were taken according to the following time points: 10 minutes, 30 minutes, 1 hour and 2 hours. The conversion of the test compound into TRE was detected. The hydrolysis of each sample was calculated according to measured peak areas of the reactant and the product: [formula]
Sampling time points were: 20 minutes, 40 minutes, 1 hour and 2 hours.
Sampling time points were: 5 minutes, 15 minutes, 30 minutes, 1 hour and 2 hours.

[2] = tested on: SD rats; experiment: U46619-induced rat acute pulmonary arterial pressure rise model, airway nebulized administration (RVSP); format: in vivo; settings: for antihypertensive effect and duration, overall: 1 to 48 hours after airway nebulized administration; for antihypertensive effect: equimolar to 13.3 µg/kg TRE
Text: U46619 was a stable analogue of thromboxane A2 (TXA2), which activated the downstream IP3 signal by binding to the thromboxane A2 receptor to promote vasoconstriction, platelet aggregation and the like. Influences of compound C16-TR and equimolar compounds Ia-1, Ia-2, Ia-3, R-11 and R-12 at different time points after airway nebulized administration on pulmonary hypertension of rats were studied by using the U46619-induced rat pulmonary arterial pressure rise mode, which were compared with that of equimolar TRE after airway nebulized administration.
Preparation of test sample: a required amount of compound TRE was taken and added into a sterile EP tube, and each tube was added with an appropriate amount of DMSO for dissolution to prepare a stock solution (100 mg/mL). Compounds C16-TR, la-1, la-2, Ia-3, R-11 and R-12 were added with appropriate amounts of DMSO and dissolved in the original bottles to prepare stock solutions (100 mg/mL), and then the stock solutions were transferred to sterile EP tubes. Each above stock solution was hermetically stored in the dark in a refrigerator at 4°C. When the stock solution was tested, an appropriate amount of stock solution was taken and added into a new sterile EP tube, and diluted with DMSO and 1×PBS to a target concentration (working solution) wherein the solvent was 3% DMSO/1×PBS.
Preparation of modeling agent: 900 µL of methyl acetate was added into an original bottle of U46619 and mixed evenly to prepare 1 mg/mL(1 µg/µL) stock solution, which was divided into 10 µL (1 µg/µL) per sterile EP tube and stored in a refrigerator at -20°C. On the day of modeling, the stock solution was taken out and balanced at room temperature and constant temperature, and each tube was added with an appropriate amount of 0.9% sodium chloride solution (sterile) to be diluted 20-fold, so as to prepare a working solution with a concentration of 50 ng/µL.
Airway nebulized administration dosages of compound TRE and the test compounds were equimolar quantities calculated based on TRE. The dosage of compound TRE group (n=3) was 13.3 µg/kg, the dosage of compound C16-TR group (n=5) was 20.9 µg/kg, the dosage of compound Ia-1 group (n=3) was 21.2 µg/kg, the dosage of compound Ia-2 group (n=6) was 22.1 µg/kg, the dosage of compound Ia-3 group (n=6) was 23.1 µg/kg, the dosage of compound R-11 group (n=3) was 21.9 µg/kg, and the dosage of compound R-12 group (n=3) was 21.7 µg/kg. There were also a model control group (n=1) and a solvent control group (n=3).
The SD rats were injected with U46619 (25 µg /kg) through the left jugular vein at different time points after airway nebulized administration, the peak value of RVSP rise after injection with U46619 was observed and recorded, and the inhibition percentage on the RVSP rise was calculated by comparing with the basic RVSP value. The rats in the model control group were administered with U46619 by intravenous injection immediately after successful catheterization and measurement of the basic RVSP. RVSP of all animals were detected by right cardiac catheterization, and respiratory conditions of the animals were observed generally. Table-2 Time points of administrating U46619 in various groups

[3] = tested on: SD rats; experiment: U46619-induced rat acute pulmonary arterial pressure rise model, low-dose airway nebulized administration (RVSP); format: in vivo; settings: for Inhibition percentage on RVSP rise (%) (mean): 1 hour after low-dose airway nebulized administration (about 3 µg/kg, equimolar)
Text: In this experiment, airway nebulized administration dosages of the compounds were about 1/7 of airway nebulized administration dosages in Experimental Example 5. By using a U46619-induced rat acute pulmonary arterial pressure rise model, antihypertensive effects of the compounds of the present invention after airway nebulized administration were further verified by reducing the administration dosages.
A model construction method was the same as that described in Experimental Example 5. In this experiment, dosages of groups were as follows: the dosage of compound C16-TR group was 3 µg/kg, and the dosages of equimolar compounds Ia-1, Ia-2 and Ia-3 were 3.0 µg/kg, 3.2 µg/kg and 3.3 µg/kg respectively.
The SD rats were anesthetized and then administered by airway nebulization, and then the basic right ventricular systolic pressure (RVSP) was measured by right cardiac catheterization. The SD rats were intravenously injected with U46619 (25 µg /kg) at 1 hour after airway nebulized administration of each compound, a peak value of RVSP rise after injection with U46619 was observed and recorded, and the inhibition percentage on the RVSP rise was calculated by comparing with the basic RVSP value. The number of experimental animals in each group was 1~2.

[4] = cited from earlier work
[5] = tested on: subjects; settings: cited from earlier work
[6] = molecular target: T1, IP receptor (Homo sapiens, UniProt P43119); experiment: In-vitro agonist activity on IP receptor, FLIPR calcium test in IP/HEK293 cells; format: cell-based; settings: 10 concentrations, 10-fold dilutions
T1 construct: host or cells: HEK293 (IP/HEK293 cell line)
Experimental: The specific method is as follows: The IP/HEK293 cell line was provided by WuXi AppTec (Shanghai) Co., Ltd. Well-grown IP/HEK293 cells were taken out from the incubator, the culture solution was aspirated, the cells were washed with D-PBS and digested with trypsin EDTA, and then added with a cell culture solution, and the cells were fully suspended by repeated pipetting. The cells were centrifuged at room temperature, the supernatant was aspirated, a culture medium was added, and the cells were resuspended by repeated pipetting with a sterile pipette. After counting living cells with Vi-CELL™, 20 µL (20,000 cells/well) of cell suspension was added to a 384-well cell culture plate and incubated in a 5% CO2 incubator at 37°C overnight. 1 mL of FLIPR test buffer was added with 77 mg of probenecid to prepare 250 mM probenecid solution. After thawing a bottle of 2XFluo-4 DirectTM (F10471), the bottle was added with 10 mL of FLIPR test buffer containing 500 uM AEBSF, and each 10 mL of Fluo-Direct was added with 0.2 mL of probenecid, with a final concentration of 2.5 mM. The mixture was vortexed and then allowed to stand in the dark for more than 5 minutes. Each compound was placed in a water bath at 25°C for 30 minutes. Then, these compounds were sequentially diluted 10-fold with Bravo, with a total of 10 concentrations, for testing. 750 nL of each compound was transferred to a 384-well compound plate with ECHO. Then, the compound plate was added with 30 µL of detection buffer. The 384-well cell culture plate was taken out from the incubator, the culture medium was discarded, and 20 µL of test buffer and 20 µL of 2X Fluo-4 DirectTM No-Wash loading buffer were added with a pipette. The cell culture plate was incubated in a 5% CO2 incubator at 37°C for 50 minutes and incubated at room temperature for 10 minutes. The cell culture plate, the compound plate and a tip box were placed into FLIPR, FLIPRTETRA test program was operated, 10 µL of reference compound and 10 µL of test compound were aspirated from the compound plate to the cell culture plate, fluorescence signals were read, and then data were processed. The data were analyzed by using Prism.

[7] = molecular target: T2, EP2 receptor (Homo sapiens, UniProt P43116); experiment: Competitive binding to EP2 receptor against radiolabeled ligand 3H-PGE2; settings: 8 concentrations from 10 µM, 10-fold dilutions
T2 construct: purchased Merck HTS185M
Experimental: This experiment was carried out in 96-well plates to evaluate the binding affinity of the compounds of the present invention (Ia-1, Ia-2 and Ia-3) to the prostaglandin EP2 receptor by testing their ability of competitive binding to the EP2 receptor with the radiolabeled ligand ^3H-PGE2. Treprostinil was used as control. MicroBeta2 was used to detect the number of ^3H captured, and Prism software was used to analyze data. The EP2 film (Merck, Cat# HT[…], batch number 2121326) was diluted with a buffer (50 mM Hepes, PH=7.4, 5 mM MgCl2, 1 mM CaCl2, 0.5% BSA) to a final concentration of 75 μg/mL. ^3H-PGE2 was diluted to 15 nM. Test compound and control compound solutions with an initial concentration of 10 μM were prepared, and subjected to 10-fold continuous gradient dilution, with a total of 8 concentrations for testing. 5%DMSO was used as a solvent control group. 1 μL of each compound solution was added into a corresponding position in the 96-well test plate, and each well was added with 50 μL of the EP2 film (about 3.75 μg/well), and added with 50 μ L of ^3H-PGE2. Then, the well plate was sealed, and incubated with shaking at 300 rpm at room temperature for 2 hours. After finishing the incubation, GF/C plates were filtered with Perkin Elmer Filtermate Harvester, and then each plate was washed with cold eluent for 4 times, and dried at 50°C for 1 hour. After drying, bottoms of wells of the filter plate were sealed with a PerkinElmer Unifilter-96 backing tape. 50 μL of Perkin Elmer Microscint O was added. The top of the filter plate was sealed with Perkin Elmer TopSeal-A sealing film. The number of ^3H captured was detected by MicroBeta2.

[8] = inhaled treprostinil; cited from earlier work
[9] = 16 hours after airway nebulized administration

T2 sequence (P43116 whole entry): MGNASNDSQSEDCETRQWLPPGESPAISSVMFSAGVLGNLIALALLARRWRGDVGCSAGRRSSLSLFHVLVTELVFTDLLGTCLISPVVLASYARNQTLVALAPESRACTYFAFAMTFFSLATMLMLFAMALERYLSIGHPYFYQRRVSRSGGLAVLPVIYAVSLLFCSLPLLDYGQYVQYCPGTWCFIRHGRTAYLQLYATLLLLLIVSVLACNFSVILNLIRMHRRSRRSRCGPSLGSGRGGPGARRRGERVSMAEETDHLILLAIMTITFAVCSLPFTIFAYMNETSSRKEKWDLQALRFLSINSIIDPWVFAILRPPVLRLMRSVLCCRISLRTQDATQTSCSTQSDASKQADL
T1 sequence (P43119 whole entry): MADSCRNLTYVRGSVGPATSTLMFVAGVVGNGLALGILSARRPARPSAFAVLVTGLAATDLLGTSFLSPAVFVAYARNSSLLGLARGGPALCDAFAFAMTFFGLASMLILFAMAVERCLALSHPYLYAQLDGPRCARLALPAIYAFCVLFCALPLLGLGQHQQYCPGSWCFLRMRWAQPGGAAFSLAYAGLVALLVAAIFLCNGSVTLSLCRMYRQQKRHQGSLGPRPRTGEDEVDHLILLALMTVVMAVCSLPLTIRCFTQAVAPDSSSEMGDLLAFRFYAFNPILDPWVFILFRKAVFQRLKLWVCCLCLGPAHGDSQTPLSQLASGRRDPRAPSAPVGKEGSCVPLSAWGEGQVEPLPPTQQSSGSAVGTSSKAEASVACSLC

## CCCCCCCCCCCCCCCCOC(=O)COc1cccc2c1C[C@H]1C[C@@H](O)[C@H](CC[C@@H](O)CCCCC)[C@H]1C2 [Compound C16-TR, treprostinil palmitate]
[1]
  hydrolysis conversion rates (release of TRE): significantly prolong the hydrolysis conversion rates and release TRE slowly and steadily
[2]; equimolar doses
  antihypertensive effect and duration, overall: long-term antihypertensive effects
[2]; [9]
  antihypertensive effect: no antihypertensive effect
[3]; 1 hour after low-dose airway nebulized administration
  antihypertensive effect: no antihypertensive effect
[3]
  Inhibition percentage on RVSP rise (%) (mean): 5.49%
[4]; HFA propellant with ethanol and DSPE-PEG2000, storage >1 week
  physical stability in solution on long-term storage: could not remain soluble
[4]; content of ethanol lower than 13%
  solubility in HFA propellant: could not be dissolved
[4]; dissolved state, ethanol
  reaction of dissolved compound with the alcohol solvent: generates ester exchange impurities with the alcohol solvent; also recorded: can react with ethanol, leading to substitution of the C16 ester by an ethyl ester
[5]; 170 µg/kg and 340 µg/kg
  side effects: developed cough and sore throat
[5]; low dose (54 µg/kg)
  side effects: no side effects such as cough or sore throat

## CCCCC[C@H](O)CC[C@@H]1[C@H]2Cc3cccc(OCC(=O)OCCCCCCOCCCCc4ccccc4)c3C[C@H]2C[C@H]1O [Compound Ia-1]
[6]
  agonist activity on IP receptor: no agonist activity
[7]
  binding to the EP2 receptor (competition with 3H-PGE2): no detectable binding
[2]; 1 hour and 6 hours after airway nebulized administration, equimolar doses
  antihypertensive effects compared with C16-TR: better than those of C16-TR
[2]; [9]
  antihypertensive effect: no antihypertensive effect
[3]
  Inhibition percentage on RVSP rise (%) (mean): 67.67%

## CCCCC[C@H](O)CC[C@@H]1[C@H]2Cc3cccc(OCC(=O)OCCCCCCCCCCOCCCCc4ccccc4)c3C[C@H]2C[C@H]1O [Compound Ia-3]
[6]
  agonist activity on IP receptor: no agonist activity
[7]
  binding to the EP2 receptor (competition with 3H-PGE2): no detectable binding
[2]; equimolar doses
  antihypertensive effect and duration, overall: stronger antihypertensive effects than C16-TR and longer durations
[2]; 24 hours after airway nebulized administration
  antihypertensive effect: obvious antihypertensive effects
[3]
  Inhibition percentage on RVSP rise (%) (mean): 83.49%

## CCCCC[C@H](O)CC[C@@H]1[C@H]2Cc3cccc(OCC(=O)O)c3C[C@H]2C[C@H]1O [TRE, treprostinil]
[6]
  agonist activity on IP receptor: strong agonist activity
[7]
  binding to the EP2 receptor (competition with 3H-PGE2): competitively inhibited the binding of the ligand ^3H-PGE2 to the EP2 receptor in a concentration-dependent manner
[2]; 13.3 µg/kg, 16 minutes after airway nebulized administration
  inhibition percentage on the RVSP rise: about 39%
[8]
  half-life: about 30 minutes
